Test results reported in the NIST ThermoML archive (doi:10.1021/acs.jced.6b00893).
± gives the expanded uncertainty stated by the source. Blank lines part the entries; values can stand above or below the compound they belong to.

Conditions: Liquid, Ebulliometric method (Recirculating still)

vapor or sublimation pressure (373.15 K): 101.3 ± 0.5 kPa
Structure (SMILES): O [water]

vapor or sublimation pressure (353.25 K): 101.3 ± 0.5 kPa
Structure (SMILES): c1ccccc1 [benzene]

Structure (SMILES): C=CCO [2-propenol]
vapor or sublimation pressure (369.75 K): 101.3 ± 0.5 kPa
